From PubChem BioAssay (NCI)
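Briefly, cells in 96-well plates were exposed to five compound concentrations for 48 h, and endpoints were estimated by linear interpolation. The concentration for full growth arrest is given as TGI.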

Experiments:
Assay in all cases: inhibition of tumour cell growth, NCI panel, 48 h
COLO 205 colon = system: COLO 205 colon
HOP-62 NSCLC = system: HOP-62 NSCLC
OVCAR-8 ovarian = system: OVCAR-8 ovarian
NCI-H23 lung = system: NCI-H23 lung
MOLT-4 leukemia = system: MOLT-4 leukemia
NCI-H226 lung = system: NCI-H226 lung
BT-549 breast = system: BT-549 breast
KM12 colon = system: KM12 colon
OVCAR-5 ovarian = system: OVCAR-5 ovarian
NCI/ADR-RES ovarian = system: NCI/ADR-RES ovarian
K-562 leukemia = system: K-562 leukemia
NCI-H522 lung = system: NCI-H522 lung
ACHN renal = system: ACHN renal
TK-10 renal = system: TK-10 renal
HCC-2998 colon = system: HCC-2998 colon
MDA-MB-435 = system: MDA-MB-435
T-47D breast = system: T-47D breast
SF-268 CNS = system: SF-268 CNS
SK-MEL-2 melanoma = system: SK-MEL-2 melanoma
CCRF-CEM leukemia = system: CCRF-CEM leukemia
HCT-116 colon = system: HCT-116 colon
786-0 renal = system: 786-0 renal
LOX IMVI melanoma = system: LOX IMVI melanoma
NCI-H460 lung = system: NCI-H460 lung
A498 renal = system: A498 renal
MDA-MB-231 breast = system: MDA-MB-231 breast
SNB-19 CNS = system: SNB-19 CNS
UACC-62 melanoma = system: UACC-62 melanoma
DU-145 prostate = system: DU-145 prostate
U251 CNS = system: U251 CNS
OVCAR-3 ovarian = system: OVCAR-3 ovarian
MCF7 breast = system: MCF7 breast
SW-620 colon = system: SW-620 colon
SF-295 CNS = system: SF-295 CNS
RXF 393 renal = system: RXF 393 renal
RPMI-8226 leukemia = system: RPMI-8226 leukemia
HT29 colon = system: HT29 colon
HS 578T breast = system: HS 578T breast
A549 NSCLC = system: A549 NSCLC
UO-31 renal = system: UO-31 renal
HCT-15 colon = system: HCT-15 colon
M14 melanoma = system: M14 melanoma
SNB-75 CNS = system: SNB-75 CNS
MALME-3M melanoma = system: MALME-3M melanoma
CAKI-1 renal = system: CAKI-1 renal
PC-3 prostate = system: PC-3 prostate
SK-MEL-5 melanoma = system: SK-MEL-5 melanoma
SN12C renal = system: SN12C renal
MDA-N = system: MDA-N
HL-60(TB) leukemia = system: HL-60(TB) leukemia
SK-MEL-28 melanoma = system: SK-MEL-28 melanoma
UACC-257 melanoma = system: UACC-257 melanoma
SR leukemia = system: SR leukemia
OVCAR-4 ovarian = system: OVCAR-4 ovarian
EKVX NSCLC = system: EKVX NSCLC
IGROV1 ovarian = system: IGROV1 ovarian
SK-OV-3 ovarian = system: SK-OV-3 ovarian
SF-539 CNS = system: SF-539 CNS

CCOC(=O)c1ccc(C(=O)/C(C#N)=C2\CCCN2C)[nH]1
TGI (COLO 205 colon): > 100 µM
TGI (HOP-62 NSCLC): > 100 µM
TGI (OVCAR-8 ovarian): > 100 µM
TGI (NCI-H23 lung): > 100 µM
TGI (MOLT-4 leukemia): > 100 µM
TGI (NCI-H226 lung): > 100 µM
TGI (BT-549 breast): > 100 µM
TGI (KM12 colon): > 100 µM
TGI (OVCAR-5 ovarian): > 100 µM
TGI (NCI/ADR-RES ovarian): > 100 µM
TGI (K-562 leukemia): > 100 µM
TGI (NCI-H522 lung): > 100 µM
TGI (ACHN renal): > 100 µM
TGI (TK-10 renal): > 100 µM
TGI (HCC-2998 colon): > 100 µM
TGI (MDA-MB-435): > 100 µM
TGI (T-47D breast): > 100 µM
TGI (SF-268 CNS): > 100 µM
TGI (SK-MEL-2 melanoma): > 100 µM
TGI (CCRF-CEM leukemia): > 100 µM
TGI (HCT-116 colon): > 100 µM
TGI (786-0 renal): > 100 µM
TGI (LOX IMVI melanoma): > 100 µM
TGI (NCI-H460 lung): > 100 µM
TGI (A498 renal): > 100 µM
TGI (MDA-MB-231 breast): > 100 µM
TGI (SNB-19 CNS): > 100 µM
TGI (UACC-62 melanoma): > 100 µM
TGI (DU-145 prostate): > 100 µM
TGI (U251 CNS): > 100 µM
TGI (OVCAR-3 ovarian): > 100 µM
TGI (MCF7 breast): > 100 µM
TGI (SW-620 colon): > 100 µM
TGI (SF-295 CNS): > 100 µM
TGI (RXF 393 renal): > 100 µM
TGI (RPMI-8226 leukemia): > 100 µM
TGI (HT29 colon): > 100 µM
TGI (HS 578T breast): > 100 µM
TGI (A549 NSCLC): > 100 µM
TGI (UO-31 renal): > 100 µM
TGI (HCT-15 colon): > 100 µM
TGI (M14 melanoma): > 100 µM
TGI (SNB-75 CNS): > 100 µM
TGI (MALME-3M melanoma): > 100 µM
TGI (CAKI-1 renal): > 100 µM
TGI (PC-3 prostate): > 100 µM
TGI (SK-MEL-5 melanoma): > 100 µM
TGI (SN12C renal): > 100 µM
TGI (MDA-N): > 100 µM
TGI (HL-60(TB) leukemia): > 100 µM
TGI (SK-MEL-28 melanoma): > 100 µM
TGI (UACC-257 melanoma): > 100 µM
TGI (SR leukemia): > 100 µM
TGI (OVCAR-4 ovarian): > 100 µM
TGI (EKVX NSCLC): > 100 µM
TGI (IGROV1 ovarian): > 100 µM

COC(=O)C1(OC(=O)Sc2ccccc2)CCN(C)CC1
TGI (COLO 205 colon): 29.8 µM
TGI (HOP-62 NSCLC): > 66.6 µM
TGI (OVCAR-8 ovarian): 52.7 µM
TGI (NCI-H23 lung): 50.2 µM
TGI (MOLT-4 leukemia): > 39.8 µM
TGI (NCI-H226 lung): 35.7 µM
TGI (BT-549 breast): 7.04 µM
TGI (KM12 colon): > 47.4 µM
TGI (OVCAR-5 ovarian): > 69.6 µM
TGI (NCI/ADR-RES ovarian): > 48.4 µM
TGI (SK-OV-3 ovarian): > 69.1 µM
TGI (SF-539 CNS): 26.5 µM
TGI (K-562 leukemia): 61.1 µM
TGI (NCI-H522 lung): 35.1 µM
TGI (ACHN renal): > 54.1 µM
TGI (TK-10 renal): > 75.6 µM
TGI (HCC-2998 colon): > 73 µM
TGI (MDA-MB-435): 36.3 µM
TGI (T-47D breast): > 100 µM
TGI (SF-268 CNS): 62 µM
TGI (SK-MEL-2 melanoma): > 100 µM
TGI (CCRF-CEM leukemia): 19.7 µM
TGI (HCT-116 colon): 53.6 µM
TGI (786-0 renal): 50.3 µM
TGI (LOX IMVI melanoma): 28.4 µM
TGI (NCI-H460 lung): 58.1 µM
TGI (A498 renal): 45.8 µM
TGI (MDA-MB-231 breast): 59 µM
TGI (SNB-19 CNS): > 100 µM
TGI (UACC-62 melanoma): > 64.7 µM
TGI (DU-145 prostate): > 100 µM
TGI (U251 CNS): 40.6 µM
TGI (OVCAR-3 ovarian): > 45.3 µM
TGI (MCF7 breast): > 100 µM
TGI (SW-620 colon): 54.9 µM
TGI (SF-295 CNS): > 59.5 µM
TGI (RXF 393 renal): 34.9 µM
TGI (RPMI-8226 leukemia): 35 µM
TGI (HT29 colon): 58 µM
TGI (HS 578T breast): 70.9 µM
TGI (A549 NSCLC): > 100 µM
TGI (UO-31 renal): 20.8 µM
TGI (HCT-15 colon): > 63.1 µM
TGI (M14 melanoma): > 58.6 µM
TGI (SNB-75 CNS): 40.1 µM
TGI (MALME-3M melanoma): > 100 µM
TGI (CAKI-1 renal): 27.8 µM
TGI (PC-3 prostate): > 83.5 µM
TGI (SK-MEL-5 melanoma): > 70.4 µM
TGI (SN12C renal): 21.3 µM
TGI (MDA-N): 49.4 µM
TGI (HL-60(TB) leukemia): 24 µM
TGI (SK-MEL-28 melanoma): > 100 µM
TGI (UACC-257 melanoma): 56.6 µM
TGI (SR leukemia): 35.7 µM
TGI (OVCAR-4 ovarian): > 100 µM
TGI (EKVX NSCLC): > 84.6 µM
TGI (IGROV1 ovarian): 18.7 µM
